Consider three molecules from patent US20230220327A1, “SERPIN PRODUCTION” (SOCIETE DES PRODUITS NESTLE S.A., priority 2019, published 2023).

“Also recorded” adds a separate entry of the source. No end group written: not given here.

For test [1], the system named is various forms of elastases and proteinase. As to conditions: Ying & Simon, 1993; cited from earlier work.
In test [2] the test system is mouse model of gluten sensitivity. To be noted: elafin delivered by a recombinant Lactococcus lactis (Galipeau et al., 2014); cited from earlier work.
In another test the target is T1, transglutaminase 2 (TG2) (Homo sapiens, UniProt P21980).
T1 sequence (P21980 1-687): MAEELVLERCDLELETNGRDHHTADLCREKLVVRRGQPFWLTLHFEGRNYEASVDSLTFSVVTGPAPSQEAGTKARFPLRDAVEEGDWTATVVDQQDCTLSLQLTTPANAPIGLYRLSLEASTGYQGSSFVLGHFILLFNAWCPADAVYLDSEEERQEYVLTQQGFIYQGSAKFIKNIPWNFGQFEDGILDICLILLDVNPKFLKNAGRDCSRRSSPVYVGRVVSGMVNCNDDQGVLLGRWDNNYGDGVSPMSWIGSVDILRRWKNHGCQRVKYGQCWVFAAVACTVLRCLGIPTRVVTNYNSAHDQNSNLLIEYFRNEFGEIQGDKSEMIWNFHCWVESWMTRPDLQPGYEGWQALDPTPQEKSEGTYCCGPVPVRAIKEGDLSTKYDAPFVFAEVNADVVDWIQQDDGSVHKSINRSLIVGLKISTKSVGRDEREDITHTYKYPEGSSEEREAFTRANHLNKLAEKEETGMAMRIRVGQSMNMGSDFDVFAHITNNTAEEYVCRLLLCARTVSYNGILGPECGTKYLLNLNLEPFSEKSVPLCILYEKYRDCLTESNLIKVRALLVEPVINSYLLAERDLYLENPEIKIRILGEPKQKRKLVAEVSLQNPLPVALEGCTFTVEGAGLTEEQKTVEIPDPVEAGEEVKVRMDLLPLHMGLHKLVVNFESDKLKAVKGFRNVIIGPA
As to conditions: in-vitro; inhibits deamidation of 33-mer gliadin peptide (McCarville et al. 2015); cited from earlier work.

Test [3] concerns B. longum subsp. longum strains. Nature of the test: growth of B. longum subsp. longum strains on galactose as sole carbohydrate source. It is filed as cell-based, Bifidobacterium longum subsp longum. To be noted: 1% galactose, MRSc base without sugar. As to the method: The serpin encoding gene and its surrounding is highly conserved within the B. longum subsp. longum species. Strains of B. longum subsp. longum were selected to represent the entire span of the genetic phylogenetic tree (Table 2). All strains were cultured in Biolector (according to example 1) in a MRSc base without sugar, to which 1% glucose, 1% galactose or a mix of glucose & galactose (respectively 0.2 & 0.8%) was added. Cultures were grown for 18 h and harvested. Obtained pellets were further analyzed for total and serpin protein content (see example 1).

Test [4] has the same test system. The test is described as follows: serpin protein levels (ELISA) in B. longum subsp. longum strains. The test is classed as cell-based, Bifidobacterium longum subsp longum. As to the method: (§1) 48-well microtiter plate with pH sensor and dissolved oxygen (DO) sensor were used to culture the strains in Biolector (m2p-labs Aachen, Germany). It was continuously shaken to prevent bacteria aggregation for 8 h. Cultures were harvested by centrifugation and supernatant was removed. Pellet was resuspended in PBS supplemented with halt protease inhibitor (Sigma) and lysed using glassbeads. Lysate containing both soluble and insoluble material was then collected.
(§2) Total protein content was measured using Pierce BCA kit (Thermofisher) and serpin protein concentration was determined using ELISA.
The serpin encoding gene and its surrounding is highly conserved within the B. longum subsp. longum species. Strains of B. longum subsp. longum were selected to represent the entire span of the genetic phylogenetic tree (Table 2). […] Obtained pellets were further analyzed for total and serpin protein content (see example 1).
Serpin is furthermore conserved within a restricted number of Bifidobacteria species (Turroni, F. et al. Characterization of the serpin-encoding gene of Bifidobacterium breve 210B. Appl Environ Microbiol 76, 3206-3219, doi:10.1128/AEM.02938-09 (2010)). […] Obtained pellets were further analyzed for total and serpin protein content (see example 1).
On the technique in general: An ELISA detects its analyte on a solid surface through an enzyme-linked reagent.

Test [5] relates to B. longum subsp. suis ATCC 27533 (T). Nature of the test: serpin protein levels (ELISA) in B. longum subsp suis. It is filed as cell-based. As to conditions: 1% galactose, 18 h (FIG. 7). As to the method:
as §1, §2
(§3) Serpin is furthermore conserved within a restricted number of Bifidobacteria species (Turroni, F. et al. Characterization of the serpin-encoding gene of Bifidobacterium breve 210B. Appl Environ Microbiol 76, 3206-3219, doi:10.1128/AEM.02938-09 (2010)). Strains belonging to these species (Table 3) were cultured in Biolector (see example 1) in a MRSc base without sugar, to which 1% glucose, 1% galactose was added. […] Cultures were grown for 18 h and harvested. Obtained pellets were further analyzed for total and serpin protein content (see example 1).

The next test deals with B. breve ATCC 15700 (T). Nature of the test: serpin protein levels (ELISA) in B. breve. It is filed as cell-based. As to conditions: 18 h (FIG. 7). The method, then:
as §1, §2, §3

The subject of test [6] is B. longum subsp. infantis ATCC 15697 (T). Nature of the test: serpin protein levels (ELISA) in B. longum subsp infantis. It is filed as cell-based. As to conditions: 1% galactose, 18 h (FIG. 7). The method, then:
as §1, §2, §3

The subject of the next test is B. longum NCC 2705. The test is described as follows: serpin protein levels (ELISA) in B. longum NCC 2705 grown on different carbohydrates. It is filed as cell-based, Bifidobacterium longum subsp longum. As to the method:
B. longum strain CNCM 1-2618 (NCC 2705) was grown in Biolector (growth conditions—anaerobic, 37 00) in MRS+5 mM L-cysteine (MRSc) base without sugar, to which different carbohydrates were added.
as §1, §2
B. longum NCC 2705 was cultured in Biolector (as described in Example 1) in a base of MRSc without sugar, with the addition of different glucose & galactose ratios, to a final concentration of 1%. Cultures were collected after 18 h of growth and analyzed for total & serpin protein levels (as described in Example 1).
B. longum NCC 2705 was grown on an MRSc base without sugar, with addition of different commercially available galactooligosaccharides (GOS) at different concentrations. […] Obtained pellets were analyzed for total and serpin protein content (see Example 1). […]

For the molecule “Elafin: human serine protease inhibitor (AQEPVKGPVSTKPGSCPIILIRCAMLNPPNRCLKDTDCPGIKKCCEGSCGMACFVPQ; ends and bridges not checked; cysteine pairing not given here; UniProt P19957 61-117, looked up)”, the “inhibitory capacity against elastases and proteinase” value in test [1] was “potent inhibitory capacity”. Further, in [2], the “gluten-induced pathology and intestine inflammation” value was “reduce gluten-induced pathology and normalise intestine inflammation”. The “inhibition of transglutaminase 2 (TG2)” value with transglutaminase 2 (TG2) was “moderately inhibits”.
In the case of `O=C[C@H](O)[C@@H](O)[C@@H](O)[C@H](O)CO` [galactose], the “ability to grow on galactose as sole carbohydrate source” value in [3] is recorded as “Not all strains of B. longum subsp. longum were able to grow”. Further, the serpin protein levels result in [4] (1% galactose or 0.2% glucose & 0.8% galactose vs 1% glucose, 18 h (FIGS. 5-7)) is “increased in all B. longum subsp. longum strains; also recorded: significant serpin protein increase”; with B. longum NCC 2705 (grown for 8 h in MRSc base without sugar plus carbohydrate, compared to all other sugars tested (FIG. 1)), “increase”. Moreover, the serpin induction result in [5] is reported as “neither induced by galactose”; with B. breve ATCC 15700 (T) (1% galactose), “none of the B. breve ATCC 15700 (T), B. longum subsp infantis nor B. longum subsp suis strains were induced”; in [6], “neither induced by galactose”. Further, in the test with B. longum NCC 2705 (different glucose & galactose ratios, final concentration 1%, 18 h, only when glucose is depleted during fermentation (FIG. 2)), the “production of serpin in the presence of glucose” value is recorded as “can induce production of serpin”.

B1: Papain: papain (from Worthington), previously demonstrated to induce serpin in B. breve (protein, UniProt P00784 134-345, looked up)
Papain: IPEYVDWRQKGAVTPVKNQGSCGSCWAFSAVVTIEGIIKIRTGNLNEYSEQELLDCDRRSYGCNGGYPWSALQLVAQYGIHYRNTYPYEGVQRYCRSREKGPYAAKTDGVRQVQPYNEGALLYSIANQPVSVVLEAAGKDFQLYRGGIFVGPCGNKVDHAVAAVGYGPNYILIKNSWGTGWGENGYIRIKRGTGNSYGVCGLYTSSFYPVKN
As for B1, the serpin levels entry is recorded as “did not increase serpin levels” in [4] (0.05 mg/ml papain on top of 1% glucose, 18 h (FIG. 7)) and “did in the B. breve ATCC 15700 (T) strain” with B. breve ATCC 15700 (T) (0.05 mg/ml papain on top of 1% glucose).
